Source: ChEMBL document CHEMBL1201862, “PubChem BioAssay data set” (2004)
The source made the active and inactive calls. No stated cut-off is given here; in the data, actives have a measured IC50 and inactives only a lower limit.

Molecular target: Envelope glycoprotein gp160 (Human immunodeficiency virus 1, UniProt Q6QLK5)
Experiment: inhibitors of HIV fusion peptide binding, primary screen, biochemical, uHTS, fluorescence dequenching (AID 1986)

Chain of Envelope glycoprotein gp160 (Q6QLK5 whole entry, the tested form may be a part): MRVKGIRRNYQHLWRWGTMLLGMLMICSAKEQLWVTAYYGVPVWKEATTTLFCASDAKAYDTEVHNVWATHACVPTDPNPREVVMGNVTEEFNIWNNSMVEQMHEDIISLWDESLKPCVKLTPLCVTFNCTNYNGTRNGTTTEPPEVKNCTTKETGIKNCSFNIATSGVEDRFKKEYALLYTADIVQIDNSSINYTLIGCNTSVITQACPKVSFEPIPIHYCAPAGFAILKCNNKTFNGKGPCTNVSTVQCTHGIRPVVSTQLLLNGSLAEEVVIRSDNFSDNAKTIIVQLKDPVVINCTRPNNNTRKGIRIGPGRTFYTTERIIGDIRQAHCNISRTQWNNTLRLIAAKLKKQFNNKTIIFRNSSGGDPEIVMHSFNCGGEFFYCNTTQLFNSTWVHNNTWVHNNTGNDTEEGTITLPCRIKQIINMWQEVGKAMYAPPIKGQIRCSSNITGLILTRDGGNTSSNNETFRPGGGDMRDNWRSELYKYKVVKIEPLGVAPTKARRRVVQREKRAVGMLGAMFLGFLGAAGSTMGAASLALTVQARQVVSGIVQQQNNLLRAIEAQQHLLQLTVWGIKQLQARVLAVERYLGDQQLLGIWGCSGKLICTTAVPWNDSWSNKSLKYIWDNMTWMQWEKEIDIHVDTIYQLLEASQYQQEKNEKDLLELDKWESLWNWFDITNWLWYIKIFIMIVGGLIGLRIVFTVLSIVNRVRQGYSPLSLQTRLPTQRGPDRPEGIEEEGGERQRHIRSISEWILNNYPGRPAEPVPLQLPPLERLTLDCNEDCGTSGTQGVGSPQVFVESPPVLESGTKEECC

Row | Structure (SMILES) | IC50
1 | O=C(O)c1[nH]c2ccccc2c1C(c1c(F)cccc1Cl)c1c(C(=O)O)[nH]c2ccccc12 | 13.4 µM (active)
2 | Cc1nn(CCc2nn[nH]n2)c2nc(-c3ccc(C4CCCCC4)cc3)cc(C(F)(F)F)c12 | 12.4 µM (active)
